Results reported in patent US20250179000A1 (Sanford Burnham Prebys Medical Discovery Institute, priority 2021, published 2025).

Experiments:
Format in all cases: cell-based
[1] = target: T1, Rat mGlu3 (Rattus norvegicus, UniProt P31422); experiment: mGlu receptor in vitro assay (thallium flux through GIRK channels / calcium assay), rat mGlu3; details: PAM potency with EC20 glutamate
T1 construct: expressed in transfected cells; host or cells: HEK-293 co-expressing GIRK channels
Procedure, shortened: (§1)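 HEK-293 cells co-expressing rat mGlu2 or mGlu3 and GIRK, dye-loaded with FluoZin2-AM, compound added about 2.5 min before thallium buffer with EC20 glutamate; potency from the 5-15 s fluorescence slope, 10-point 4-parameter fit. Calcium assay at mGlu3 used TREx293 mGlu3 Gα15 cells induced with tetracycline 20 ng/mL for 20 h.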

[2] = target: Human mGlu3 (Homo sapiens, UniProt Q14832); experiment: mGlu receptor in vitro assay, human mGlu3
Chain of Human mGlu3 (Q14832 23-879): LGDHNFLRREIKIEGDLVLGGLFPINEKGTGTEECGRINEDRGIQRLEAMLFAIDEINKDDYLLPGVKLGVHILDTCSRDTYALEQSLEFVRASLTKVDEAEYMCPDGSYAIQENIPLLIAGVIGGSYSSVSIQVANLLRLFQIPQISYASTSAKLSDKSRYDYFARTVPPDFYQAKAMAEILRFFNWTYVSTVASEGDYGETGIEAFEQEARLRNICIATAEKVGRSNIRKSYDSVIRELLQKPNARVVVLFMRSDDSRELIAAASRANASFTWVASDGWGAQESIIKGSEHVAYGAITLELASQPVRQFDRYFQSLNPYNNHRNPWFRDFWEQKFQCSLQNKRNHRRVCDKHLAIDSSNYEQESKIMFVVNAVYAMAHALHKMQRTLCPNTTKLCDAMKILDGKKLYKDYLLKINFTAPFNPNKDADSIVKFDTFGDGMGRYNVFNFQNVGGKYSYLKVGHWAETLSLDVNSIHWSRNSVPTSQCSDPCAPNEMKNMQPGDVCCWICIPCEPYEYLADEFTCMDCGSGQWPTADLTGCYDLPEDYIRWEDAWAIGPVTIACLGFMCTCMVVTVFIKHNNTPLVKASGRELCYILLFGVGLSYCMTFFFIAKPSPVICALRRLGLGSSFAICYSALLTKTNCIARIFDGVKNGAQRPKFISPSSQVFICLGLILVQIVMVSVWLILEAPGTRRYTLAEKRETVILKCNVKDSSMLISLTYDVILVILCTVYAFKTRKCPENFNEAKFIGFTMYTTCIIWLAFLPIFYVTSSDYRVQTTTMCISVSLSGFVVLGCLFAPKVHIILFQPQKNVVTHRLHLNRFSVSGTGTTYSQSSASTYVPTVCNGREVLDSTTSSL

[3] = target: T2, Rat mGlu2 (Rattus norvegicus, UniProt P31421); experiment: mGlu receptor in vitro assay, thallium flux through GIRK channels, rat mGlu2; details: PAM potency with EC20 glutamate
T2 construct: expressed in transfected cells; host or cells: HEK-293 co-expressing GIRK channels
T2 sequence (P31421 19-872): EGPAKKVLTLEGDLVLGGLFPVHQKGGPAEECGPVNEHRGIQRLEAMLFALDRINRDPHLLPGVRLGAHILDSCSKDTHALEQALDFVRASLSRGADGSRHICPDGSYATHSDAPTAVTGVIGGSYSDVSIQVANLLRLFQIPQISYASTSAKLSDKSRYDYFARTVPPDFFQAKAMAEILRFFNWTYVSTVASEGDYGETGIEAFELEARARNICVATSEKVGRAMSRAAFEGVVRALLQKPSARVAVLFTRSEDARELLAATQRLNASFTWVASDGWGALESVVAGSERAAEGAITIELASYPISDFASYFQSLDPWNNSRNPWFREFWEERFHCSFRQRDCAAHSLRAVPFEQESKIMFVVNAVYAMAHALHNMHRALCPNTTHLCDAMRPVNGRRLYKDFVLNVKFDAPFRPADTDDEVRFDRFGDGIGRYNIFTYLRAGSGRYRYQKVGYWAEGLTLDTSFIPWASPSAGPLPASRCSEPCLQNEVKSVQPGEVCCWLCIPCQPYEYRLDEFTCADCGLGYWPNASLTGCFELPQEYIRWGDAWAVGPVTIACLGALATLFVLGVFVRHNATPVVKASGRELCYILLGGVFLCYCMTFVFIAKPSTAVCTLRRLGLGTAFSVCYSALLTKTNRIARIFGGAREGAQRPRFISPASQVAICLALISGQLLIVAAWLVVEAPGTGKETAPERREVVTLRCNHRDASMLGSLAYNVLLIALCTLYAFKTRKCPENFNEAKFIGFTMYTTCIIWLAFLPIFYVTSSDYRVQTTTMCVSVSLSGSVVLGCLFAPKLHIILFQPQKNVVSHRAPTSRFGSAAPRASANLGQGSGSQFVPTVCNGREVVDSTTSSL
Procedure, shortened: as §1

[4] = target: Human mGlu2 (Homo sapiens, UniProt Q14416); experiment: mGlu receptor in vitro assay, human mGlu2
Chain of Human mGlu2 (Q14416 19-872): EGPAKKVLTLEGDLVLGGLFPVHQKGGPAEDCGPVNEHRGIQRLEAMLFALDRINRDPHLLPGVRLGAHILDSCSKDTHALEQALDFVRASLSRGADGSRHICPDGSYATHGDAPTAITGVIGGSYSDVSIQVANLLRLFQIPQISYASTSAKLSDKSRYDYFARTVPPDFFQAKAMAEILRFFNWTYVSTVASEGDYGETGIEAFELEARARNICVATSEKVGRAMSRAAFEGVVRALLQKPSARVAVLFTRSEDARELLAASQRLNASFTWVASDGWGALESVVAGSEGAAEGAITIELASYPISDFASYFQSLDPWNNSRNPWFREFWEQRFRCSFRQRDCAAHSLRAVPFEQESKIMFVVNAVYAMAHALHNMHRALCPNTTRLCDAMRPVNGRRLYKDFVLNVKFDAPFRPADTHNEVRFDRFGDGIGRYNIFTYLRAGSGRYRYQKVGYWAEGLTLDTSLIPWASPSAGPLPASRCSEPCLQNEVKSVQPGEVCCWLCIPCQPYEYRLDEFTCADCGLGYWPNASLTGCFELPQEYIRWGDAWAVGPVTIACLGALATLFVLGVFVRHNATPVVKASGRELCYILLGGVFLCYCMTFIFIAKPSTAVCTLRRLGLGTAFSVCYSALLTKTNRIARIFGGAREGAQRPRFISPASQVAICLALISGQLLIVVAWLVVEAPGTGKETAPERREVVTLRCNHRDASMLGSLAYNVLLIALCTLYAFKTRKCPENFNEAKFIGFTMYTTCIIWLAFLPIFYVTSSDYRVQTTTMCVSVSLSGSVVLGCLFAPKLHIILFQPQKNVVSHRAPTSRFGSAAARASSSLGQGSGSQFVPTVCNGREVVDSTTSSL

T1 sequence (P31422 23-879): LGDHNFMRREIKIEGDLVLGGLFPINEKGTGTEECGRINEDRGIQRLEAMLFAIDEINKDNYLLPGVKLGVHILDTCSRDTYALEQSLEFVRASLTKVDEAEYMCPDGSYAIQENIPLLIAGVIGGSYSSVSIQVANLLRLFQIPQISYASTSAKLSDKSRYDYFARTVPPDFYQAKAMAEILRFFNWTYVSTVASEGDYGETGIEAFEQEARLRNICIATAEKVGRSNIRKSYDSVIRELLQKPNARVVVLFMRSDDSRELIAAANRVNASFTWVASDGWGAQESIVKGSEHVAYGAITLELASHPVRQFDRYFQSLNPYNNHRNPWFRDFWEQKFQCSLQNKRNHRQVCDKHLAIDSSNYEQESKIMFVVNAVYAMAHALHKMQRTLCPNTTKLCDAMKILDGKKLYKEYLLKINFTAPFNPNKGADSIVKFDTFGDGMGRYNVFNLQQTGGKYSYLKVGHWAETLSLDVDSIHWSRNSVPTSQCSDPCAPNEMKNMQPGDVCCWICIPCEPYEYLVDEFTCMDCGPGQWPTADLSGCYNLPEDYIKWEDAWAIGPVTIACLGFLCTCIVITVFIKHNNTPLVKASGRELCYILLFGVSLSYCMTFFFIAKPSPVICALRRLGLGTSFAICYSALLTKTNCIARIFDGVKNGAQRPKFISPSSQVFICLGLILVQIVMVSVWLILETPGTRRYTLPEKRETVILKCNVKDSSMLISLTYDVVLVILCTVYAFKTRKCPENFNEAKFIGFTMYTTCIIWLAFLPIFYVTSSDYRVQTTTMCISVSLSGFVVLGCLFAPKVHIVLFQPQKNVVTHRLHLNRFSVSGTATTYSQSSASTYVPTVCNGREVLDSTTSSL

SMILES | EC50 [1] [nM] | EC50 [2] [nM] | EC50 [3] [nM] | EC50 [4] [nM]
CCCC(=O)c1ccc(OCC2(COc3cccc(C(=O)O)c3C)CC2)c(C)c1O [Example 36, 3-({[(4-Butanoyl-3-hydroxy-2-methylphenoxy)methyl]cyclopropyl}methoxy)-2-methylbenzoic acid] | > 30000 | > 30000 | 89 | 14
CCCC(=O)c1ccc(OCCOCCOc2ccc(C(=O)O)c(Cl)c2)c(C)c1O [Example 41, 4-{2-[2-(4-Butanoyl-3-hydroxy-2-methylphenoxy)ethoxy]ethoxy}-2-chlorobenzoic acid] | 1000 | 886 | 15 | 8
CCCC(=O)c1ccc(OCCSCCOc2ccc(C(=O)O)c(Cl)c2)c(C)c1O [Example 42] | 552 | 371 | 27 | 28
CCCC(=O)c1ccc(OC/C=C/COc2ccc(C(=O)O)c(Cl)c2)c(C)c1O [Example 44, 4-[(2E)-4-(4-Butanoyl-3-hydroxy-2-methylphenoxy)but-2-enyloxy]-2-chlorobenzoic acid] | 1030 | 1130 | 44 | 20
CCCC(=O)c1ccc(OCCCCCOc2ccc(C(=O)O)c(F)c2)c(C)c1O [Example 45, 4-[5-(4-Butanoyl-3-hydroxy-2-methylphenoxy)pentyloxy]-2-fluorobenzoic acid] | 1090 | 943 | 66 | 13
Cc1c(OCCCCCOc2ccc(C(=O)O)c(Cl)c2)ccc(C(=O)CC(C)C)c1O [Example 46, 2-Chloro-4-{5-[3-hydroxy-2-methyl-4-(3-methylbutanoyl)phenoxy]pentyloxy}benzoic acid] | 427 | 414 | 39 | 12
CCCC(=O)c1ccc(OCCCCCOc2ccc(C(=O)O)cc2Cl)c(C)c1O [Example 50, 4-[5-(4-Butanoyl-3-hydroxy-2-methylphenoxy)pentyloxy]-3-chlorobenzoic acid] | > 10000 | > 10000 | 43 | 21
[2H]C([2H])(CCCC([2H])([2H])Oc1ccc(C(=O)CCC)c(O)c1C)Oc1ccc(C(=O)O)cc1OC [Example 51, 4-((5-(4-Butyryl-3-hydroxy-2-methylphenoxy)pentyl-1,1,5,5-d4)oxy)-3-methoxybenzoic acid] | 2380 | > 30000 | 22 | 9
CCCC(=O)c1ccc(OCCCCCOc2ccc(Cl)c(C(=O)O)c2)c(C)c1O [Example 52, 5-[5-(4-Butanoyl-3-hydroxy-2-methylphenoxy)pentyloxy]-2-chlorobenzoic acid] | > 30000 | > 30000 | 36 | 25
[2H]C([2H])(CCCC([2H])([2H])Oc1ccc(C(=O)CCC)c(O)c1C)Oc1ccc(C(=O)O)c(Cl)c1 [Example 53, 4-((5-(4-Butyryl-3-hydroxy-2-methylphenoxy)pentyl-1,1,5,5-d4)oxy)-2-chlorobenzoic acid] | 920 | 708 | 19 | 6
CCCC(=O)c1ccc(OCCCCCOc2ccc(C(=O)O)c(Cl)c2)c(C)c1O [Example 54, 4-[5-(4-Butanoyl-3-hydroxy-2-methylphenoxy)pentyloxy]-2-chlorobenzoic acid] | 577 | 300 | 8 | 6
COc1cc(F)c(C(=O)O)cc1-c1cccc(COc2ccc(C(=O)CC(C)(C)C)c(O)c2C)c1 [Example 164, 3′-((4-(3,3-dimethylbutanoyl)-3-hydroxy-2-methylphenoxy)methyl)-4-fluoro-6-methoxy-[1,1′-biphenyl]-3-carboxylic acid] | 559 | 242 | 110 | 39
COc1ccc(C(=O)O)cc1OCCCCOc1ccc(C(=O)c2ccccc2)c(O)c1C [compound 59, 3-(4-(4-Benzoyl-3-hydroxy-2-methylphenoxy)butoxy)-4-methoxybenzoic acid] | 222 | 408 | 182 | 325
COc1ccc(C(=O)O)cc1OCCCCOc1ccc(C(=O)C2CC2)c(O)c1C [compound 60, 3-(4-(4-(Cyclopropanecarbonyl)-3-hydroxy-2-methylphenoxy)butoxy)-4-methoxybenzoic acid] | > 10000 | 598 | 117 | 60
COc1ccc(C(=O)O)cc1OCCCCOc1ccc(C(=O)c2ccc(F)cc2)c(O)c1C [compound 65, 3-(4-(4-(4-Fluorobenzoyl)-3-hydroxy-2-methylphenoxy)butoxy)-4-methoxybenzoic acid] | 3030 | 342 | 1150 | 143
COc1ccc(C(=O)O)cc1-c1cncc(COc2ccc(C(=O)C3CC3)c(O)c2C)n1 [compound 69, 3-(6-((4-(Cyclopropanecarbonyl)-3-hydroxy-2-methylphenoxy)methyl)pyrazin-2-yl)-4-methoxybenzoic acid] | 28 | 23 | 49 | 33
Cc1c(OCCCCSc2cccc(C(=O)O)c2)ccc(C(=O)CC(C)C)c1O [compound 81, 3-((4-(3-Hydroxy-2-methyl-4-(3-methylbutanoyl)phenoxy)butyl)thio)benzoic acid] | 1490 | 966 | 326 | 163
COc1ccc(C(=O)O)cc1OCCCCSc1ccc(C(=O)CC(C)(C)C)c(O)c1C [compound 84, 3-{4-[4-(3,3-Dimethylbutanoyl)-3-hydroxy-2-methylphenylthio]butoxy}-4-methoxybenzoic acid] | 953 | 340 | 382 | 126
Cc1c(OCOc2ccc(C(=O)CC(C)(C)C)c(O)c2C)cccc1C(=O)O [compound 94, 3-{[4-(3,3-Dimethylbutanoyl)-3-hydroxy-2-methylphenoxy]methoxy}-2-methylbenzoic acid] | > 30000 | > 10000 | 441 | 100
Cc1c(OCCCCOc2ccc(C(=O)O)c(F)c2)ccc(C(=O)CC(C)C)c1O [compound 100, 2-Fluoro-4-{4-[3-hydroxy-2-methyl-4-(3-methylbutanoyl)phenoxy]butoxy}benzoic acid] | 732 | 773 | 79 | 15
CCCC(=O)c1ccc(OCCCCOc2ccc(C(=O)O)c(Cl)c2)c(C)c1O [compound 101, 4-[4-(4-Butanoyl-3-hydroxy-2-methylphenoxy)butoxy]-2-chlorobenzoic acid] | > 30000 | > 30000 | 33 | 16
COc1c(C(=O)O)cccc1-c1cccc(COc2ccc(C(=O)CC(C)(C)C)c(O)c2C)c1 [compound 102, 3-(3-{[4-(3,3-Dimethylbutanoyl)-3-hydroxy-2-methylphenoxy]methyl}phenyl)-2-methoxybenzoic acid] | 493 | 159 | 93 | 54
CCCC(=O)c1ccc(OCc2cnc(-c3cccc(C(=O)O)c3OC)cn2)c(C)c1O [compound 103, 3-{5-[(4-Butanoyl-3-hydroxy-2-methylphenoxy)methyl]pyrazin-2-yl}-2-methoxybenzoic acid] | 481 | 375 | 198 | 54
